Measurements: publication PMC11003488 (Journal of Enzyme Inhibition and Medicinal Chemistry, 2023)
Where two headings read alike, the source gives them in different places.

Columns and labels:
KM12 = assay: NCI-60 SRB growth inhibition, one-dose and five-dose; format: cell-based; settings: Homo sapiens
NCI-H522 = assay: as above; format: cell-based; settings: Homo sapiens
A549/ATCC = assay: as above; format: cell-based; settings: Homo sapiens
DU-145 = assay: as above; format: cell-based; settings: Homo sapiens
HCT-15 = assay: as above; format: cell-based; settings: Homo sapiens
HL-60(TB) = assay: cells; format: cell-based; settings: Homo sapiens
MCF7 = assay: NCI-60 SRB growth inhibition, one-dose and five-dose; format: cell-based; settings: Homo sapiens
OVCAR-4 = assay: as above; format: cell-based; settings: Homo sapiens
COLO 205 = assay: as above; format: cell-based; settings: Homo sapiens
SK-MEL-28 = assay: as above; format: cell-based; settings: Homo sapiens
HOP-92 = assay: as above; format: cell-based; settings: Homo sapiens
T-47D = assay: as above; format: cell-based; settings: Homo sapiens, T47D
SK-MEL-2 = assay: as above; format: cell-based; settings: Homo sapiens, SK-MEL-2, read-out: percent growth inhibition
NCI-H226 = assay: as above; format: cell-based; settings: Homo sapiens
SR = assay: as above; format: cell-based; settings: Homo sapiens
HOP-62 = assay: as above; format: cell-based; settings: Homo sapiens
SF-539 = assay: as above; format: cell-based; settings: Homo sapiens
SF-268 = assay: as above; format: cell-based; settings: Homo sapiens
IGROV1 = assay: as above; format: cell-based; settings: Homo sapiens
CAKI-1 = assay: as above; format: cell-based; settings: Homo sapiens
OVCAR-3 = assay: as above; format: cell-based; settings: Homo sapiens
MOLT-4 = assay: as above; format: cell-based; settings: Homo sapiens
MALME-3M = assay: as above; format: cell-based; settings: Homo sapiens
SNB-19 = assay: as above; format: cell-based; settings: Homo sapiens
[1] = tested on: NCI 60-cell line panel (full panel); assay: NCI-60 SRB growth inhibition, full panel mean / MG-MID; format: cell-based, human; settings: for GI50: Homo sapiens, 60 cell
LOX IMVI = assay: NCI-60 SRB growth inhibition, one-dose and five-dose; format: cell-based; settings: Homo sapiens
SK-MEL-5 = assay: as above; format: cell-based; settings: Homo sapiens
MDA-MB-435 = assay: as above; format: cell-based; settings: Homo sapiens
HS 578 T = assay: as above; format: cell-based; settings: Homo sapiens
EKVX = assay: as above; format: cell-based; settings: Homo sapiens
BT-549 = assay: as above; format: cell-based; settings: Homo sapiens
K-562 = assay: as above; format: cell-based; settings: Homo sapiens
RXF 393 = assay: as above; format: cell-based; settings: Homo sapiens
MDA-MB-468 = assay: as above; format: cell-based; settings: Homo sapiens
HCT-116 = assay: as above; format: cell-based; settings: Homo sapiens
OVCAR-5 = assay: as above; format: cell-based; settings: Homo sapiens
OVCAR-8 = assay: as above; format: cell-based; settings: Homo sapiens, OVCAR-8, read-out: percent growth inhibition
CCRF-CEM = assay: as above; format: cell-based; settings: Homo sapiens
PC-3 = assay: as above; format: cell-based; settings: Homo sapiens
A498 = assay: as above; format: cell-based; settings: Homo sapiens
U251 = assay: as above; format: cell-based; settings: Homo sapiens
HCC-2998 = assay: as above; format: cell-based; settings: Homo sapiens
[2] = read-out: percent growth inhibition

Work on `CC(=O)Nc1ccc(CNc2cccc(C(=O)/C=C/c3cccnc3)c2)cc1` [Compound 5b, (E)-N-(4-(((3–(3-(pyridin-3-yl)acryloyl)phenyl)amino)methyl)phenyl)acetamide] yielded a GI50 (KM12; KM12) of 2250 nM, an inhibition at 10 µM (KM12; KM12, read-out: percent growth inhibition) of 162% and a GI50 (NCI-H522; NCI-H522) of 1670 nM. It also gave an inhibition at 10 µM (NCI-H522; NCI-H522, read-out: percent growth inhibition) of 165%, a GI50 (A549/ATCC; A549) of 14900 nM and an inhibition at 10 µM (A549/ATCC; A549, read-out: percent growth inhibition) of 27.8%. It also gave a GI50 (DU-145; DU-145) of 5150 nM, an inhibition at 10 µM (DU-145; DU-145, read-out: percent growth inhibition) of 92.2% and a GI50 (HCT-15; HCT-15) of 2050 nM. The inhibition at 10 µM (HCT-15; HCT-15, read-out: percent growth inhibition) was 138%, the GI50 (HL-60(TB); HL-60) was 2780 nM and the inhibition at 10 µM (HL-60(TB); HL-60, read-out: percent growth inhibition) was 144%. For the same molecule, the GI50 (MCF7; MCF7) was 1380 nM, the inhibition at 10 µM (MCF7; MCF7, read-out: percent growth inhibition) was 178% and the GI50 (OVCAR-4; OVCAR-4) was 8630 nM. For the same molecule, the inhibition at 10 µM (OVCAR-4; OVCAR-4, read-out: percent growth inhibition) was 88.5%, the GI50 (COLO 205; COLO 205) was 10900 nM and the inhibition at 10 µM (COLO 205; COLO 205, read-out: percent growth inhibition) was 156%. For the same molecule, the GI50 (SK-MEL-28; SK-MEL-28) was 1960 nM, the inhibition at 10 µM (SK-MEL-28; SK-MEL-28, read-out: percent growth inhibition) was 166% and the GI50 (HOP-92; HOP-92) was 8470 nM. The inhibition at 10 µM (HOP-92; HOP-92, read-out: percent growth inhibition) was 68.5%, the GI50 (T-47D) was 4140 nM and the inhibition at 10 µM (T-47D; [2]) was 82%. For the same molecule, the inhibition at 10 µM (SK-MEL-2) was 52.7%, the GI50 (NCI-H226; NCI-H226) was 2760 nM and the inhibition at 10 µM (NCI-H226; NCI-H226, read-out: percent growth inhibition) was 116%. The GI50 (SR) was 2010 nM, the GI50 (HOP-62; HOP-62) was 12700 nM and the inhibition at 10 µM (HOP-62; HOP-62, read-out: percent growth inhibition) was 74%. The GI50 (SF-539; SF-539) was 6350 nM, the inhibition at 10 µM (SF-539; SF-539, read-out: percent growth inhibition) was 170% and the GI50 (SF-268; SF-268) was 13600 nM. It also gave an inhibition at 10 µM (SF-268; SF-268, read-out: percent growth inhibition) of 88.6%, a GI50 (IGROV1; IGROV-1) of 2300 nM and an inhibition at 10 µM (IGROV1; IGROV-1, read-out: percent growth inhibition) of 123%. The GI50 (CAKI-1; CAKI-1) was 12200 nM, the inhibition at 10 µM (CAKI-1; CAKI-1, read-out: percent growth inhibition) was 95.9% and the GI50 (OVCAR-3; OVCAR-3) was 2850 nM. For the same molecule, the inhibition at 10 µM (OVCAR-3; OVCAR-3, read-out: percent growth inhibition) was 190%, the GI50 (MOLT-4; MOLT-4) was 2880 nM and the inhibition at 10 µM (MOLT-4; MOLT-4, read-out: percent growth inhibition) was 128%. It also gave a GI50 (MALME-3M) of 2190 nM, an inhibition at 10 µM (MALME-3M; [2]) of 132% and a GI50 (SNB-19; SNB-19) of 3610 nM. It also gave an inhibition at 10 µM (SNB-19; SNB-19, read-out: percent growth inhibition) of 99.1%, a GI50 ([1]; read-out: Full panel GI50 mean) of 4650 nM and a GI50 ([1]; read-out: Full panel MG-MID GI50) of 4650 nM. For the same molecule, the “Full panel Mean GI %” value ([1]; mean over NCI-60 panel, single dose 10 µM) was 123.16%, the GI50 (LOX IMVI) was 1650 nM and the inhibition at 10 µM (LOX IMVI; [2]) was 199%. It also gave a GI50 (SK-MEL-5; SK-MEL-5) of 6510 nM, an inhibition at 10 µM (SK-MEL-5; SK-MEL-5, read-out: percent growth inhibition) of 174% and a GI50 (MDA-MB-435; MDA-MB-435) of 2280 nM. It also gave an inhibition at 10 µM (MDA-MB-435; MDA-MB-435, read-out: percent growth inhibition) of 124%, a GI50 (HS 578 T) of 2570 nM and an inhibition at 10 µM (HS 578 T; [2]) of 88.3%. It also gave a GI50 (EKVX) of 4870 nM, an inhibition at 10 µM (EKVX; [2]) of 94.2% and a GI50 (BT-549; BT-549) of 2780 nM. The inhibition at 10 µM (BT-549; BT-549, read-out: percent growth inhibition) was 174%, the GI50 (K-562; K562) was 2520 nM and the inhibition at 10 µM (K-562; K562, read-out: percent growth inhibition) was 99.8%. It also gave a GI50 (RXF 393; RXF 393) of 3090 nM, an inhibition at 10 µM (RXF 393; RXF 393, read-out: percent growth inhibition) of 194% and a GI50 (MDA-MB-468; MDA-MB-468) of 1670 nM. It also gave an inhibition at 10 µM (MDA-MB-468; MDA-MB-468, read-out: percent growth inhibition) of 175%, a GI50 (HCT-116; HCT-116, HCT-116, five-dose screening) of 1800 nM and an inhibition at 10 µM (HCT-116; HCT-116, read-out: percent growth inhibition) of 196%. The GI50 (OVCAR-5; OVCAR-5) was 3440 nM, the inhibition at 10 µM (OVCAR-5; OVCAR-5, read-out: percent growth inhibition) was 103% and the inhibition at 10 µM (OVCAR-8) was 97.1%. The GI50 (CCRF-CEM) was 2800 nM, the inhibition at 10 µM (CCRF-CEM; [2]) was 141% and the GI50 (PC-3; PC-3) was 3050 nM. For the same molecule, the inhibition at 10 µM (PC-3; PC-3, read-out: percent growth inhibition) was 98.8%, the GI50 (A498; A498) was 13400 nM and the inhibition at 10 µM (A498; A498, read-out: percent growth inhibition) was 17.5%. For the same molecule, the GI50 (U251; U-251) was 1900 nM, the inhibition at 10 µM (U251; U-251, read-out: percent growth inhibition) was 166% and the GI50 (HCC-2998; HCC 2998) was 1820 nM. The inhibition at 10 µM (HCC-2998; HCC 2998, read-out: percent growth inhibition) was 195%.
